# Source: patent US5861476A, “Peptides and compounds that bind to the IL-1 receptor” (Affymax Technologies N.V., priority 1995, dated 1999)
# Where a SMILES comes first, the peptide text is derived from it. [ ]: non-standard residue; d: D form. Bpa = N[C@@H](Cc1ccc(C(=O)c2ccccc2)cc1)C(=O)O; 1Nal = N[C@@H](Cc1cccc2ccccc12)C(=O)O; Aze = O=C(O)[C@@H]1CCN1; Aib = CC(C)(N)C(=O)O
# Target: T1, IL-1RtI (Homo sapiens, UniProt P14778)
# T1 construct: made in house; host or cells: recombinant host cells (one form soluble from baculovirus transformed host cells; another PIG-tailed and cleaved from the cell surface)
# T1 sequence (P14778 18-336): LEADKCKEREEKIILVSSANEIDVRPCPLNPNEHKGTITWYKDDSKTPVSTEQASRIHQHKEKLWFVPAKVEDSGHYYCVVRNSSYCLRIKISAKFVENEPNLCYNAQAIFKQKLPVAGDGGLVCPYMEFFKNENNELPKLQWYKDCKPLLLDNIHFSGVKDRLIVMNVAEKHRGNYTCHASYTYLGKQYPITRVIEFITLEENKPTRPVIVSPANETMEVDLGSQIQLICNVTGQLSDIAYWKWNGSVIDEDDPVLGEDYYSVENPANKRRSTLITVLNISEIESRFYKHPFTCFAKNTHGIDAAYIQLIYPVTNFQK
# Test: Inhibition of 125I-IL-1α binding to IL-1RtI (Example 3)
# Conditions: inhibition of 125I-IL-1α binding to IL-1RtI; soluble peptide unless marked *
# Method: This example provides the results of experiments conducted to determine an approximate IC50 for certain peptides of the invention. IC50 as used herein refers to the concentration of a compound which will inhibit 50% of the binding between a receptor and its ligand, e.g. IL-1RtI and IL-1. Stock solutions of each peptide were prepared. The appropriate amount of the peptide was dissolved in DMSO, and then nineteen volumes of binding buffer (RPMI 1640, 1% BSA, 20 mM HEPES, pH 7.2-7.3, and 0.1% sodium azide) were added to yield a 1 mM peptide, 5% DMSO stock solution.
# One assay utilized a truncated IL-1RtI which had been immobilized on 96-well plates with an appropriate antibody, typically a non-blocking high affinity antibody. In other assays, cells expressing "full-length" IL-1RtI were used with results that yielded IC50 values about 5 to 10 fold lower than those determined using the truncated receptor. The cells were seeded onto Falcon 3072 96-well plates at about 10^5 cells per well, and the plates were incubated overnight at 37° C. in media containing serum. The following morning, the cells were checked to ensure that the cells were confluent and adhered to the bottom of the wells.
# According to either assay protocol, the plates were then washed three times with binding buffer, and then 50 μl of binding buffer and 25 μl of a peptide solution (either the stock solution or a dilution thereof; each stock was subjected to five three fold dilutions) were added to each well. Then 25 μl of binding buffer containing ^125 I-IL-1α (final concentration of 90 pM) were added to each well to begin the assay. Each assay was carried out in duplicate. The plates were then incubated for two hours at 4° C. For peptides having particularly high affinities, the assay was run in 24 well plates allowing for higher levels of ligand (possible total volume of 2.5 ml instead of 100 μl in the 96 well plate), thereby minimizing the potential for ligand depletion.
# After the two hour incubation, the wells were rinsed three times with ice cold PBS (a semi-automated cell harvesting device was used to conduct the rinse). The receptors or cells were then detached from the plates by adding 100 μl of 0.1N NaOH to each well and incubating the plates at room temperature for 20 minutes. After the 20 minute incubation, about 75 μl of the suspension was counted on a gamma counter, and the IC50 for each peptide was determined using computer assistance and the results of the gamma counting.
row,Structure (SMILES),IC50 [nM]
1,C[C@@H](O)[C@H](NC(=O)[C@H](Cc1c[nH]c2ccccc12)NC(=O)[C@H](CCC(=O)O)NC(=O)[C@@H](N)Cc1cccc2ccccc12)C(=O)N1CCC[C@H]1C(=O)NCC(=O)N[C@@H](Cc1ccc(O)cc1)C(=O)N[C@@H](Cc1ccc(O)cc1)C(=O)N[C@@H](CCC(N)=O)C(=O)N1CC[C@H]1C(=O)N[C@@H](Cc1ccc(O)cc1)C(N)=O [1Nap--EWTPGYYQJY--NH2] (H-[1Nal]EWTPGYYQ[Aze]Y-NH2),≤ 500
2,C[C@H](N)C(=O)N[C@@H](CCC(=O)O)C(=O)N[C@@H](Cc1c[nH]c2ccccc12)C(=O)N[C@H](C(=O)N1CCC[C@H]1C(=O)NCC(=O)N[C@@H](Cc1ccc(O)cc1)C(=O)N[C@@H](Cc1c[nH]c2ccccc12)C(=O)N[C@@H](CCC(N)=O)C(=O)N1CC[C@H]1C(=O)N[C@@H](Cc1ccc(O)cc1)C(N)=O)[C@@H](C)O [AEWTPGYWQJY--NH2] (H-AEWTPGYWQ[Aze]Y-NH2),≤ 100000
3,CC(=O)N[C@@H](Cc1ccc(C(=O)c2ccccc2)cc1)C(=O)N[C@@H](CCC(=O)O)C(=O)N[C@@H](Cc1c[nH]c2ccccc12)C(=O)N[C@H](C(=O)N1CCC[C@H]1C(=O)NCC(=O)N[C@@H](Cc1ccc(O)cc1)C(=O)N[C@@H](Cc1ccc(O)cc1)C(=O)N[C@@H](CCC(N)=O)C(=O)N1CC[C@H]1C(=O)N[C@@H](Cc1ccc(O)cc1)C(N)=O)[C@@H](C)O [AcBpa--EWTPGYYQJY--NH2] (Ac-[Bpa]EWTPGYYQ[Aze]Y-NH2),≤ 500
4,CC(=O)N[C@@H](Cc1ccccc1)C(=O)N[C@@H](CCC(=O)O)C(=O)N[C@@H](Cc1ccc(C(=O)c2ccccc2)cc1)C(=O)N[C@H](C(=O)N1CCC[C@H]1C(=O)NCC(=O)N[C@@H](Cc1ccc(O)cc1)C(=O)N[C@@H](Cc1ccc(O)cc1)C(=O)N[C@@H](CCC(N)=O)C(=O)N1CC[C@H]1C(=O)N[C@@H](Cc1ccc(O)cc1)C(N)=O)[C@@H](C)O [AcFE--Bpa--TPGYYQJY--NH2] (Ac-FE[Bpa]TPGYYQ[Aze]Y-NH2),≤ 100000
5,CC(=O)N[C@@H](Cc1ccccc1)C(=O)N[C@@H](CCC(=O)O)C(=O)N[C@@H](Cc1c[nH]c2ccccc12)C(=O)N[C@H](C(=O)N1CCC[C@H]1C(=O)NCC(=O)N[C@@H](Cc1ccc(C(=O)c2ccccc2)cc1)C(=O)N[C@@H](Cc1ccc(O)cc1)C(=O)N[C@@H](CCC(N)=O)C(=O)N1CC[C@H]1C(=O)N[C@@H](Cc1ccc(O)cc1)C(N)=O)[C@@H](C)O [AcFEWTPG--Bpa--YQJY--NH2] (Ac-FEWTPG[Bpa]YQ[Aze]Y-NH2),≤ 500
6,CC(=O)N[C@@H](Cc1ccccc1)C(=O)N[C@@H](CCC(=O)O)C(=O)N[C@@H](Cc1c[nH]c2ccccc12)C(=O)N[C@H](C(=O)N1CCC[C@H]1C(=O)NCC(=O)N[C@@H](Cc1ccc(O)cc1)C(=O)N[C@@H](Cc1ccc(C(=O)c2ccccc2)cc1)C(=O)N[C@@H](CCC(N)=O)C(=O)N1CC[C@H]1C(=O)N[C@@H](Cc1ccc(O)cc1)C(N)=O)[C@@H](C)O [AcFEWTPGY--Bpa--QJY--NH2] (Ac-FEWTPGY[Bpa]Q[Aze]Y-NH2),≤ 500
7,CC(=O)N[C@@H](Cc1ccccc1)C(=O)N[C@@H](CCC(=O)O)C(=O)N[C@@H](Cc1c[nH]c2ccccc12)C(=O)N[C@H](C(=O)N1CCC[C@H]1C(=O)NCC(=O)N[C@@H](Cc1ccc(O)cc1)C(=O)N[C@@H](Cc1ccc(O)cc1)C(=O)N[C@@H](CCC(N)=O)C(=O)N1CC[C@H]1C(=O)N[C@@H](Cc1ccc(C(=O)c2ccccc2)cc1)C(N)=O)[C@@H](C)O [AcFEWTPGYYQJ--Bpa--NH2] (Ac-FEWTPGYYQ[Aze][Bpa]-NH2),≤ 100000
8,C[C@@H](O)[C@H](NC(=O)[C@H](Cc1c[nH]c2ccccc12)NC(=O)[C@H](CCC(=O)O)NC(=O)[C@@H](N)Cc1ccc(C(=O)c2ccccc2)cc1)C(=O)N1CCC[C@H]1C(=O)NCC(=O)N[C@@H](Cc1ccc(O)cc1)C(=O)N[C@@H](Cc1ccc(O)cc1)C(=O)N[C@@H](CCC(N)=O)C(=O)N1CC[C@H]1C(=O)N[C@@H](Cc1ccc(O)cc1)C(N)=O [Bpa--EWTPGYYQJY--NH2] (H-[Bpa]EWTPGYYQ[Aze]Y-NH2),≤ 500
9,C[C@@H](O)[C@H](NC(=O)[C@H](Cc1ccc(C(=O)c2ccccc2)cc1)NC(=O)[C@H](CCC(=O)O)NC(=O)[C@@H](N)Cc1ccccc1)C(=O)N1CCC[C@H]1C(=O)NCC(=O)N[C@@H](Cc1ccc(O)cc1)C(=O)N[C@@H](Cc1ccc(O)cc1)C(=O)N[C@@H](CCC(N)=O)C(=O)N1CC[C@H]1C(=O)N[C@@H](Cc1ccc(O)cc1)C(N)=O [FE--Bpa--TPGYYQJY--NH2] (H-FE[Bpa]TPGYYQ[Aze]Y-NH2),> 100000

# The remaining lines, values ahead:
row,IC50 [nM],Structure (SMILES)
1,≤ 500,C[C@H](NC(=O)[C@@H](N)Cc1ccccc1)C(=O)N[C@@H](Cc1c[nH]c2ccccc12)C(=O)N[C@H](C(=O)N1CCC[C@H]1C(=O)NCC(=O)N[C@@H](Cc1ccc(O)cc1)C(=O)N[C@@H](Cc1c[nH]c2ccccc12)C(=O)N[C@@H](CCC(N)=O)C(=O)N1CC[C@H]1C(=O)N[C@@H](Cc1ccc(O)cc1)C(N)=O)[C@@H](C)O [FAWTPGYWQJY--NH2] (H-FAWTPGYWQ[Aze]Y-NH2)
2,≤ 100000,C[C@H](NC(=O)[C@H](CCC(=O)O)NC(=O)[C@@H](N)Cc1ccccc1)C(=O)N[C@H](C(=O)N1CCC[C@H]1C(=O)NCC(=O)N[C@@H](Cc1ccc(O)cc1)C(=O)N[C@@H](Cc1c[nH]c2ccccc12)C(=O)N[C@@H](CCC(N)=O)C(=O)N1CC[C@H]1C(=O)N[C@@H](Cc1ccc(O)cc1)C(N)=O)[C@@H](C)O [FEATPGYWQJY--NH2] (H-FEATPGYWQ[Aze]Y-NH2)
3,≤ 500,C[C@H](NC(=O)[C@H](Cc1c[nH]c2ccccc12)NC(=O)[C@H](CCC(=O)O)NC(=O)[C@@H](N)Cc1ccccc1)C(=O)N1CCC[C@H]1C(=O)NCC(=O)N[C@@H](Cc1ccc(O)cc1)C(=O)N[C@@H](Cc1c[nH]c2ccccc12)C(=O)N[C@@H](CCC(N)=O)C(=O)N1CC[C@H]1C(=O)N[C@@H](Cc1ccc(O)cc1)C(N)=O [FEWAPGYWQJY--NH2] (H-FEWAPGYWQ[Aze]Y-NH2)
4,≤ 500,C[C@H](NC(=O)[C@@H](NC(=O)[C@H](Cc1c[nH]c2ccccc12)NC(=O)[C@H](CCC(=O)O)NC(=O)[C@@H](N)Cc1ccccc1)[C@@H](C)O)C(=O)NCC(=O)N[C@@H](Cc1ccc(O)cc1)C(=O)N[C@@H](Cc1c[nH]c2ccccc12)C(=O)N[C@@H](CCC(N)=O)C(=O)N1CC[C@H]1C(=O)N[C@@H](Cc1ccc(O)cc1)C(N)=O [FEWTAGYWQJY--NH2] (H-FEWTAGYWQ[Aze]Y-NH2)
5,≤ 100000,C[C@@H](O)[C@H](NC(=O)[C@H](Cc1c[nH]c2ccccc12)NC(=O)[C@H](CCC(=O)O)NC(=O)[C@@H](N)Cc1ccccc1)C(=O)NCC(=O)NCC(=O)N[C@@H](Cc1ccc(O)cc1)C(=O)N[C@@H](Cc1c[nH]c2ccccc12)C(=O)N[C@@H](CCC(N)=O)C(=O)N1CC[C@H]1C(=O)N[C@@H](Cc1ccc(O)cc1)C(N)=O [FEWTGGYWQJY--NH2] (H-FEWTGGYWQ[Aze]Y-NH2)
6,≤ 500,C[C@@H](O)[C@H](NC(=O)[C@H](Cc1c[nH]c2ccccc12)NC(=O)[C@H](CCC(=O)O)NC(=O)[C@@H](N)Cc1ccccc1)C(=O)N1CC[C@H]1C(=O)NCC(=O)N[C@@H](Cc1ccc(O)cc1)C(=O)N[C@@H](Cc1c[nH]c2ccccc12)C(=O)N[C@@H](CCC(N)=O)C(=O)N1CC[C@H]1C(=O)N[C@@H](Cc1ccc(O)cc1)C(N)=O [FEWTJGYWQJY--NH2] (H-FEWT[Aze]GYWQ[Aze]Y-NH2)
7,≤ 500,C[C@H](NC(=O)[C@@H]1CCCN1C(=O)[C@@H](NC(=O)[C@H](Cc1c[nH]c2ccccc12)NC(=O)[C@H](CCC(=O)O)NC(=O)[C@@H](N)Cc1ccccc1)[C@@H](C)O)C(=O)N[C@@H](Cc1ccc(O)cc1)C(=O)N[C@@H](Cc1c[nH]c2ccccc12)C(=O)N[C@@H](CCC(N)=O)C(=O)N1CC[C@H]1C(=O)N[C@@H](Cc1ccc(O)cc1)C(N)=O [FEWTPAYWQJY--NH2] (H-FEWTPAYWQ[Aze]Y-NH2)
8,≤ 500,C[C@@H](O)[C@H](NC(=O)[C@H](Cc1c[nH]c2ccccc12)NC(=O)[C@H](CCC(=O)O)NC(=O)[C@@H](N)Cc1ccccc1)C(=O)N1CCC[C@H]1C(=O)NC(C)(C)C(=O)N[C@@H](Cc1ccc(O)cc1)C(=O)N[C@@H](Cc1c[nH]c2ccccc12)C(=O)N[C@@H](CCC(N)=O)C(=O)N1CC[C@H]1C(=O)N[C@@H](Cc1ccc(O)cc1)C(N)=O [FEWTPAibYWQJY--NH2] (H-FEWTP[Aib]YWQ[Aze]Y-NH2)
